Data from ChEMBL document CHEMBL4002586, “Aurone Mannich base derivatives as promising multifunctional agents with acetylcholinesterase inhibition, anti-β-amyloid aggragation and neuroprotective properties for the treatment of Alzheimer's disease” (Eur J Med Chem, 2017).
pIC50: −log10 of the molar value. Active and inactive are the calls of the source. The rule behind the calls is not given here.

What was measured:
Acetylcholinesterase [1] = biological target: T1, Acetylcholinesterase (Rattus norvegicus, UniProt P37136); assay: Inhibition of AChE in rat brain cortex homogenates using acetylthiocholine iodide as substrate in presence of BuChE inhibitor tetraisopropyl pyrophosphoramide measured after 15 mins by Ellman's method
T1 sequence (P37136 whole entry): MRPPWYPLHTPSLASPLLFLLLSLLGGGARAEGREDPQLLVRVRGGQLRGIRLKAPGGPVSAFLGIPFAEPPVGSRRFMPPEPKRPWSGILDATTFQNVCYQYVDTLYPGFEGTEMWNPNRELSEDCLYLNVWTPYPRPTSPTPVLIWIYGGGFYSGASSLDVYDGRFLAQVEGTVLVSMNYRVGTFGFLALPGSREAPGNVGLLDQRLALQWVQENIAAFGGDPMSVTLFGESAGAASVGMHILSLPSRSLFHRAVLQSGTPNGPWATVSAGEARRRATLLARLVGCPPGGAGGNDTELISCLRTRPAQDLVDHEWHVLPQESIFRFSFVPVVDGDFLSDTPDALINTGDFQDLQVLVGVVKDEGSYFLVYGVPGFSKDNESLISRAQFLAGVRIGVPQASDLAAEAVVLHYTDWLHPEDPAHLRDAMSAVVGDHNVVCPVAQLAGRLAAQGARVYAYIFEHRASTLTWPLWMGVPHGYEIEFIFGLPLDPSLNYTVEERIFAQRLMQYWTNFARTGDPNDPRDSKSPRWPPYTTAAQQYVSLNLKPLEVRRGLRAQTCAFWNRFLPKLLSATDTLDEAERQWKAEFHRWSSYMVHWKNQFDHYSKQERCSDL

Acetylcholinesterase [2] = biological target: Acetylcholinesterase (Electrophorus electricus, UniProt O42275); assay: Inhibition of Electrophorus electricus AChE using acetylthiocholine iodide as substrate measured after 15 mins by Ellman's method
Acetylcholinesterase [3] = biological target: Acetylcholinesterase (Homo sapiens, UniProt P22303); assay: Inhibition of human erythrocyte AChE using acetylthiocholine iodide as substrate measured after 15 mins by Ellman's method
[4] = biological target: butyrylcholinesterase (BuChE) (Rattus norvegicus, UniProt Q9JKC1); assay: Inhibition of BuChE in rat serum at 50 uM using butyrylthiocholine as substrate measured after 15 mins by Ellman's method relative to control; settings: probe butyrylthiocholine
[5] = Antioxidant activity assessed as inhibition of AAPH-induced peroxyl radical generation at 5 uM measured as trolox equivalent preincubated for 15 mins followed by AAPH addition measured every 60 secs for 90 mins by ORAC-FL assay; format: functional
[6] = biological target: Amyloid-beta precursor protein (Homo sapiens) (UniProt P05067); assay: Inhibition of self-induced aggregation of HFIP-treated human amyloid beta (1 to 42 residues) at 25 uM after 24 hrs by thioflavin T-based fluorometric assay relative to control
[7] = Inhibition of Cu2+-mediated aggregation of human amyloid beta (1 to 42 residues) at 25 uM after 24 hrs by thioflavin T-based fluorometric assay relative to control; format: functional
[8] = biological target: T2, Amine oxidase [flavin-containing] A (Homo sapiens, UniProt P21397); assay: Inhibition of recombinant human MAO-A expressed in baculovirus infected BTI insect cells at 10 uM using kynuramine as substrate incubated for 30 mins by fluorescence assay relative to control; settings: 0.5 h
T2 sequence (P21397 whole entry): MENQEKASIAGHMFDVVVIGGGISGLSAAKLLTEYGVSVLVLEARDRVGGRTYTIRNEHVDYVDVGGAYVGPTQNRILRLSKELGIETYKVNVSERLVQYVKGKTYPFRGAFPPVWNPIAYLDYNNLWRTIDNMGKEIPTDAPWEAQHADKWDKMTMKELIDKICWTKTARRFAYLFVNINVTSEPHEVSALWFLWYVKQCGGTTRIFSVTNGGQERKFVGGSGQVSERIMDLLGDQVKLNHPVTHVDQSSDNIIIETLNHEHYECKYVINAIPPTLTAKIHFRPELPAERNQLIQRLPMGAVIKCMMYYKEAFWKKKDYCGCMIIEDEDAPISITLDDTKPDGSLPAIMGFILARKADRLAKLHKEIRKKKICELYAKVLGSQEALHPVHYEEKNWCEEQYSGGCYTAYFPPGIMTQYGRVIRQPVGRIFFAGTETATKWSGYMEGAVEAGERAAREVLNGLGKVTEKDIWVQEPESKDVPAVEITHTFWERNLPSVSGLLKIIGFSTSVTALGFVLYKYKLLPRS

[9] = biological target: T3, Amine oxidase [flavin-containing] B (Homo sapiens, UniProt P27338); assay: Inhibition of recombinant human MAO-B expressed in baculovirus infected BTI insect cells at 10 uM using kynuramine as substrate incubated for 30 mins by fluorescence assay relative to control; settings: 0.5 h
T3 sequence (P27338 whole entry): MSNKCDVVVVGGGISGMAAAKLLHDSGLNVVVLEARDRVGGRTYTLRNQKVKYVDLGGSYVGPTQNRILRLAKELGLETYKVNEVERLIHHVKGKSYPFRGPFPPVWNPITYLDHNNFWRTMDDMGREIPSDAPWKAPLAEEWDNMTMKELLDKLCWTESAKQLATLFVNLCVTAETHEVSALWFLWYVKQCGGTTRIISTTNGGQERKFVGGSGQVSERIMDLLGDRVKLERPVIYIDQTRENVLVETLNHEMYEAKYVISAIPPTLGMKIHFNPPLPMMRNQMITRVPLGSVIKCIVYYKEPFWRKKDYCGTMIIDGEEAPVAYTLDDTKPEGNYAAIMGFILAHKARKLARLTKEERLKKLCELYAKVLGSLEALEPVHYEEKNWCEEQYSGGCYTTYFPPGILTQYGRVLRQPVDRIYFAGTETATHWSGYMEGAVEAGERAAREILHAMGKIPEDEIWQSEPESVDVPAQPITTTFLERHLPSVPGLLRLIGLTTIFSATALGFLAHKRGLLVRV

PC-12 [10] = assay: Neuroprotective activity against H2O2-induced damage in rat PC12 cells assessed as increase in cell viability at 100 uM pretreated for 2 hrs followed by H2O2 challenge measured after 24 hrs by MTT assay; format: functional, cell-based
PC-12 [11] = assay: Neuroprotective activity against H2O2-induced damage in rat PC12 cells assessed as reduction in LDH release at 100 uM pretreated for 2 hrs followed by H2O2 challenge measured after 24 hrs; format: functional, cell-based
[12] = Metal chelating activity assessed as compound-Zn2+ complex formation at 37.5 uM in presence of ZnCl2 after 30 mins by UV-visible spectrophotometric analysis; format: functional
[13] = Metal chelating activity assessed as compound-Cu2+ complex formation at 37.5 uM in presence of CuCl2 after 30 mins by UV-visible spectrophotometric analysis; format: functional
[14] = Metal chelating activity assessed as compound-Al3+ complex formation at 37.5 uM in presence of AlCl3 after 30 mins by UV-visible spectrophotometric analysis; format: functional
[15] = Metal chelating activity assessed as compound-Fe2+ complex formation at 37.5 uM in presence of FeSO4 after 30 mins by UV-visible spectrophotometric analysis; format: functional
[16] = Metal chelating activity assessed as mole fraction of compound required to show 1:1 stoichiometry for Cu2+-compound complex at 37.5 uM after 30 mins by UV-vis spectrophotometric method; format: functional
[17] = Permeability of compound at 100 ug/ml after 18 hrs by PAMPA; format: physicochemical; settings: read-out: permeability
[18] = biological target: T4, Acetylcholinesterase (Rattus norvegicus) (UniProt P37136); assay: Inhibition of AChE in rat brain cortex homogenates at 50 uM using acetylthiocholine iodide as substrate in presence of BuChE inhibitor tetraisopropyl pyrophosphoramide measured after 15 mins by Ellman's method relative to control
T4 sequence (whole entry): T1 sequence (P37136 whole entry)

[19] = biological target: Acetylcholinesterase (Electrophorus electricus) (UniProt O42275); assay: Inhibition of Electrophorus electricus AChE at 50 uM using acetylthiocholine iodide as substrate measured after 15 mins by Ellman's method relative to control
Acetylcholinesterase (Electrophorus electricus), sequence (O42275 24-633 limits assumed): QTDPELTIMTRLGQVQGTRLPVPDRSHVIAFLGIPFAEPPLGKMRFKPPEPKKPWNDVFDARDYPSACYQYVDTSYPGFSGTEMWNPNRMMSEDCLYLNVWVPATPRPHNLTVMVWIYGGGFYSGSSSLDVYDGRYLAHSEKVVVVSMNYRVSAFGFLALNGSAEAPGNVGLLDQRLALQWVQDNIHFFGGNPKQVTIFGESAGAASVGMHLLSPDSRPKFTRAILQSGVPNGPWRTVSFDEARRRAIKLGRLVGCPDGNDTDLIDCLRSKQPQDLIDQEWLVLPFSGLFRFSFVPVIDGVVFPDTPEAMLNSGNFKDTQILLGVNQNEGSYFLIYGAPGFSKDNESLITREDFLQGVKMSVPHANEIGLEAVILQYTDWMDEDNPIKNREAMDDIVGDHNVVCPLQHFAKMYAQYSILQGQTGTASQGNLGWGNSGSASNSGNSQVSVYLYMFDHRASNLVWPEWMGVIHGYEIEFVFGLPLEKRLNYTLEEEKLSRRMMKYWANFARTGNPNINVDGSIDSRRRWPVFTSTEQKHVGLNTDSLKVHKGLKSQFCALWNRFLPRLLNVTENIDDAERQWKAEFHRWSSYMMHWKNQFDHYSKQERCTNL

Amyloid-beta precursor protein (Homo sapiens), sequence (P05067 whole entry, the tested form may be a part): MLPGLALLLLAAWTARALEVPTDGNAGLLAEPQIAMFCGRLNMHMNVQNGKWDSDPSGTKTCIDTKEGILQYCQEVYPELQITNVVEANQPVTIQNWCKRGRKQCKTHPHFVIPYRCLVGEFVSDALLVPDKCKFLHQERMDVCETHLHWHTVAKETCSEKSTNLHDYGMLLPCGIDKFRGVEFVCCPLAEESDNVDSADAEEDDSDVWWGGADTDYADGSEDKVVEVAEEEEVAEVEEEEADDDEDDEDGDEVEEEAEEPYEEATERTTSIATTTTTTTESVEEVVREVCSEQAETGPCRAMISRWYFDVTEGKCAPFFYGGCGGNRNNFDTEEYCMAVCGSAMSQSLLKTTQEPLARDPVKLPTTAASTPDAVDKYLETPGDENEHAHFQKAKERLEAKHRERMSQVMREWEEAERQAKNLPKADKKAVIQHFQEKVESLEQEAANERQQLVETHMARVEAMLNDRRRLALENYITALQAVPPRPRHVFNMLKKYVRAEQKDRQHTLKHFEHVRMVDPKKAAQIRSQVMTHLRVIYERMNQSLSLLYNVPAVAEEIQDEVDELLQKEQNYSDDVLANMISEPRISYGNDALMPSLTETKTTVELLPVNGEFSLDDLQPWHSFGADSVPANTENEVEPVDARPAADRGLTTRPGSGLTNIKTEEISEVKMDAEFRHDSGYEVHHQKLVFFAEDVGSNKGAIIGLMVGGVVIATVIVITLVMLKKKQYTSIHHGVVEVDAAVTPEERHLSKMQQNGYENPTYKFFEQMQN
butyrylcholinesterase (BuChE), sequence (Q9JKC1 whole entry): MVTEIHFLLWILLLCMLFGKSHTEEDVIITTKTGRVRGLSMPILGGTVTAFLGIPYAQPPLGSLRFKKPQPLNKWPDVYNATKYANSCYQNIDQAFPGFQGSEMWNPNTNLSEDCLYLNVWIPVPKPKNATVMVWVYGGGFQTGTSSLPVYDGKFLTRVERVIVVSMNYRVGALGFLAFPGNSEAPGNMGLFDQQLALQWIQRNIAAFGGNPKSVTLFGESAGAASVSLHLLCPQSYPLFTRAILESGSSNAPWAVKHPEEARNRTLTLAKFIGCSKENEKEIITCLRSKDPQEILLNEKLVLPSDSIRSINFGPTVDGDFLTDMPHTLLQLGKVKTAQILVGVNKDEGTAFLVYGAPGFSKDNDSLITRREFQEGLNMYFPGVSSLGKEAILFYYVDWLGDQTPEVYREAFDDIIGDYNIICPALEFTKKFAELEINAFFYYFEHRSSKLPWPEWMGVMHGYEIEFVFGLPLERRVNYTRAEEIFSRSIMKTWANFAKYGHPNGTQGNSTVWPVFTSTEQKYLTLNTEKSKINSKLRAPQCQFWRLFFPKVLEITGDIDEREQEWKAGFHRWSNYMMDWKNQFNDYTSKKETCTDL
Acetylcholinesterase (Electrophorus electricus, UniProt O42275), sequence (O42275 whole entry): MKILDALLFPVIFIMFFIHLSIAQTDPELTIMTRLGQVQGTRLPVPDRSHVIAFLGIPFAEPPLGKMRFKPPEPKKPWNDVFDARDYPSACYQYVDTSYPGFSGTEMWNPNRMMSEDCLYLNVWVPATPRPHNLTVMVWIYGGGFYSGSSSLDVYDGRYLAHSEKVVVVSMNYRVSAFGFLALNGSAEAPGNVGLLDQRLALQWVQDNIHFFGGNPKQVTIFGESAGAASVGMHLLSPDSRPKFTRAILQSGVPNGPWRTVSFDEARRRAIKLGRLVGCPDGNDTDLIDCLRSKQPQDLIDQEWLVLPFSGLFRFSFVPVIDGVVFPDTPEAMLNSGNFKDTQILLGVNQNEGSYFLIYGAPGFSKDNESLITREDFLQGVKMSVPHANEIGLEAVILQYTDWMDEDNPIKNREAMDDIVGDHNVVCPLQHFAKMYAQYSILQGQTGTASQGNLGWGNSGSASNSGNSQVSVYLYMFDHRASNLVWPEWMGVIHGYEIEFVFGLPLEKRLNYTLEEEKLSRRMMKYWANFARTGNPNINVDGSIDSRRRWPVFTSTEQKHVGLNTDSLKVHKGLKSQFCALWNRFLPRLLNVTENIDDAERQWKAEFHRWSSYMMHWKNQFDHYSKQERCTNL
Acetylcholinesterase (Homo sapiens, UniProt P22303), sequence (P22303 whole entry): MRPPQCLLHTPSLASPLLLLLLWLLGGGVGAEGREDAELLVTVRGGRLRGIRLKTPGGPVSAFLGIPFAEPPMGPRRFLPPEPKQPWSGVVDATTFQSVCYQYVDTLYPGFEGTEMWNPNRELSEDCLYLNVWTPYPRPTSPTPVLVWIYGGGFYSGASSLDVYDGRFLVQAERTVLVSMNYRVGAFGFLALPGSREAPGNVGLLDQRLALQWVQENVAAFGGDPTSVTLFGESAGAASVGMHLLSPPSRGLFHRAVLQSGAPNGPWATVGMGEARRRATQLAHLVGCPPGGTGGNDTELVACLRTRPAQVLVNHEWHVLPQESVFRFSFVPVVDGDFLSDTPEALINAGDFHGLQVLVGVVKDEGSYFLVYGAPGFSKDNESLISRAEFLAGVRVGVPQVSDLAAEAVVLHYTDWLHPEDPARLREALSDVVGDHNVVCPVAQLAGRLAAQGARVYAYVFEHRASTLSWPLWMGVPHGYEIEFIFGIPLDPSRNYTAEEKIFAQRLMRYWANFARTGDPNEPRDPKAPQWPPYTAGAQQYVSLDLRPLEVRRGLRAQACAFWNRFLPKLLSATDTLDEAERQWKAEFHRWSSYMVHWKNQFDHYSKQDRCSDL

Compound | pIC50 (Acetylcholinesterase [1]) | pIC50 (Acetylcholinesterase [2]) | pIC50 (Acetylcholinesterase [3]) | inhibition at 0.25 h, 50 µM [4] | Activity [5] | inhibition [6] | inhibition [7] | inhibition at 10 µM [8] | inhibition at 10 µM [9] | Activity (PC-12 [10]) | Activity (PC-12 [11]) | Activity [12] | Activity [13] | Activity [14] | Activity [15] | Activity [16] | Papp at 18 h, 100 ug/ml [17] | inhibition [18] | inhibition [19]
COc1cc2c(cc1OC)C(=O)/C(=C/c1ccc(CN3CCOCC3)c(O)c1)O2 | 5.06 | 4.69 | 5.22 | < 5% | 1.58 equiv | 31.5% | 28.5% | 12.1% | 3.3% | – | – | – | – | – | – | – | – | – | –
COc1ccccc1CN(C)Cc1ccc(/C=C2\Oc3cc(OC)c(OC)cc3C2=O)cc1O | 4.13 | 4.54 | – | < 5% | 1.35 equiv | 55.1% | 55.8% | 16.3% | 8.4% | – | – | – | – | – | – | – | – | – | –
COc1cc2c(cc1OC)C(=O)/C(=C/c1ccc(CN3CCN(C)CC3)c(O)c1)O2 | 4.79 | 4.92 | 4.85 | < 5% | 1.78 equiv | 38.6% | 35.1% | 9.2% | 1% | – | – | – | – | – | – | – | – | – | –
Cc1c(C)c2c(c(C)c1O)CCC(C)(C(=O)O)O2 (configuration not stated) | – | – | – | – | – | – | – | – | – | Active | Active | – | – | – | – | – | – | – | –
COc1cc2c(cc1OC)C(=O)/C(=C/c1ccc(CN(C)C)c(O)c1)O2 | 4.59 | 5.05 | 4.61 | < 5% | 2.02 equiv | 46.9% | 32.2% | 20.2% | 2.23% | – | – | – | – | – | – | – | – | – | –
CCN(CC)Cc1ccc(/C=C2\Oc3cc(OC)c(OC)cc3C2=O)cc1O | 6.97 | 6.31 | 6.15 | < 5% | 2.06 equiv | 47.5% | 23.6% | 22.7% | 7.2% | – | – | – | – | – | – | – | – | – | –
CCN(Cc1ccc(/C=C2\Oc3cc(OC)c(OC)cc3C2=O)cc1O)Cc1ccccc1N(C)C | 5.14 | 5.19 | 5.17 | 19.6% | 1.56 equiv | 78.3% | 72.6% | 15.3% | 38.1% | – | – | Active | Active | Active | Active | 0.98 molar ratio | 122 nm/s | – | –
COc1cc2c(cc1OC)C(=O)/C(=C/c1ccc(CN(C)Cc3ccccc3)c(O)c1)O2 | 4.70 | 5.04 | 4.58 | < 5% | 1.62 equiv | 51.5% | 70.1% | 19.4% | 17.8% | – | – | – | – | – | – | – | – | – | –
COc1cc2c(cc1OC)C(=O)/C(=C/c1cccc(O)c1)O2 | 3.88 | 4.44 | – | < 5% | 1.51 equiv | 33.6% | 28.9% | 17.2% | 37% | – | – | – | – | – | – | – | – | – | –
COc1cc2c(cc1OC)C(=O)/C(=C/c1ccc(CN3CCN(Cc4ccccc4)CC3)c(O)c1)O2 | – | – | – | < 5% | 1.01 equiv | 41.8% | 38.7% | 15.3% | 6.9% | – | – | – | – | – | – | – | – | < 5% | < 5%
CCN(Cc1ccc(N(C)C)cc1)Cc1ccc(/C=C2\Oc3cc(OC)c(OC)cc3C2=O)cc1O | 3.54 | 3.37 | – | < 5% | 2.02 equiv | 80.5% | 68.5% | 6.8% | 19.2% | – | – | – | – | – | – | – | – | – | –
COc1cc2c(cc1OC)C(=O)/C(=C/c1ccc(CN3CCCC3)c(O)c1)O2 | 6.61 | 5.57 | 5.88 | 19% | 1.79 equiv | 57.2% | 38.8% | 62.9% | 37.9% | – | – | – | – | – | – | – | – | – | –
CCN1CCN(Cc2ccc(/C=C3\Oc4cc(OC)c(OC)cc4C3=O)cc2O)CC1 | 4.62 | 4.93 | 4.49 | < 5% | 1.61 equiv | 49.1% | 39.7% | 15.1% | 2.6% | – | – | – | – | – | – | – | – | – | –
CCN(Cc1ccccc1)Cc1ccc(/C=C2\Oc3cc(OC)c(OC)cc3C2=O)cc1O | 4.03 | 4.45 | – | < 5% | 1.17 equiv | 72.5% | 60.9% | 17% | 23.9% | – | – | – | – | – | – | – | – | – | –
COc1cc2c(cc1OC)C(=O)/C(=C/c1ccc(O)cc1)O2 | 3.53 | 4.19 | – | < 5% | 1.52 equiv | 15.7% | 26.7% | 12.1% | 36.1% | – | – | – | – | – | – | – | – | – | –
CCN(Cc1ccc(/C=C2\Oc3cc(OC)c(OC)cc3C2=O)cc1O)Cc1ccccc1OC | 4.35 | 4.43 | – | 5.21% | 1.47 equiv | 74.9% | 71.2% | 9.7% | 26.4% | – | – | – | – | – | – | – | – | – | –
COc1cc(/C=C/C(=O)CC(=O)/C=C/c2ccc(O)c(OC)c2)ccc1O | – | – | – | – | – | – | 67.2% | – | – | – | – | – | – | – | – | – | – | – | –
